Tests used:
[1] = test system: Dysf-null mice; assay: Dosing of metabolic and endocrine biomarkers in blood, serum and tissues, Dysf-null mice, 32 weeks weekly prednisone; format: in vivo
Description: Animal handling and steroid regimens. Mice were housed in a pathogen-free dedicated vivarium in accordance with Institutional Animal Care and Use Committee (IACUC) guidelines. Euthanasia was performed through carbon dioxide inhalation followed by cervical dislocation and heart removal. All methods using living animals in this study were performed in ethical accordance with the American Veterinary Medical Association (AVMA) and under protocols fully approved by both the Institutional Animal Care and Use Committee (IACUC) at Northwestern University Feinberg School of Medicine (protocol number ISO00000761). Consistent with the ethical approvals, all efforts were made to minimize suffering. Mice were fed ad libitum with Mouse Breeder Sterilizable Diet (#7904; Harlan Teklad, Indianapolis, Ind.) and maintained on a 12-hour light/dark cycle. mdx mice from the DBA/2J background were obtained from the Jackson Laboratory (Bar Harbor, Me.; stock #013141) and interbred. Male mice were used for reported experiments. Age at start was approximately 6 months for short-term experiments, approximately 6 weeks for long-term experiments. Dysferlin-null (Dysf-null) mice from the 129T2/SvEmsJ background were previously characterized (Demonbreun et al., 2011; Demonbreun et al., 2014). Age at start was approximately 9 months for long-term experiments. For experiments with Dysf-null and wildtype mice, both females and males (approximately 1:1 ratio) were randomized in treatment groups. […] Dosing was based on weekly weight measurements (1 mg/kg body weight, (Sali et al., 2012)) in 100 μl total PBS volume per dose. […] On injection days, stock solutions stored at −20° C. were diluted into sterile Eppendorf tubes containing sterile phosphate buffered saline (PBS) (#14190; Thermo Fisher, Waltham, Mass.). Puromycin (cat #A1113803, Thermo Scientific, Waltham, Mass.) was administered i.p. as 0.040 μmol/body g, and tissues were snap-frozen 30 minutes after injection. Sterile BD Micro-Fine IV Insulin Syringes (#14-829-1A; Fisher Scientific, Waltham, Mass.) were used to inject the intraperitoneal cavity of non-sedated animals. All animal analyses both during treatment and at endpoint were conducted blinded to treatment groups.
Dosing of metabolic and endocrine biomarkers. Glycogen was quantitated using the Glycogen Assay Kit (#ab65620; Abcam, Cambridge, Mass.) from approximately 25 mg frozen-pulverized whole tissue, following manufacturer's instructions and internal standards for calculating μg/mg values. For measurement of whole-tissue ATP/NAD^+ levels, approximately 25 mg frozen-pulverized tissue was extracted in 10% perchloric acid and neutralized in 0.75 M K2CO3, as previously described (Ramsey et al., 2009). NAD+ and ATP were measured by high-pressure liquid chromatography (HPLC) with Shimadzu LC-20A pump (Shimadzu Scientific Instr Inc, Addison, Ill.) and UV-VIS detector, using a Supelco LC-18-T column (15 cm×[…]; #58970-U; Millipore-Sigma, St Louis, Mo.). […] Corticosterone was measured in mouse serum and cortisol was measured in human serum using dedicated ELISA kits (#ADI-900-097, Enzo Life Science, Farmingdale, N.Y.; #K7430-100, BioVision, Milpitas, Calif.) according to manufacturer's instructions and internal standards to calculate ng/ml values. Insulin levels were quantitated in mouse and human serum with species-specific ELISA kits (#10-1247-01 (mouse-specific); #10-1113-01 (human-specific); Mercodia, Uppsala, Sweden), following manufacturer's instructions and internal standards to calculate ng/ml values. Free fatty acids were quantitated using Enzychrom Free Fatty Acid Assay kit (#EFFA-100; BioAssay Systems, Hayward, Calif.), following kit's instructions and standards to calculate μM (serum) and nmol/mg (tissue) values.

[2] = test system: GRE-KRE genomic sites (Mef2C, Bckdha, Pck1, Nmnat3); assay: Luciferase reporter experiments in electroporated mdx myofibers; format: in vivo, mouse; conditions: prednisone pulse 1 mg/kg combined with Klf15 overexpression
Description: Luciferase experiments in live myofibers. Luciferase plasmids containing regulatory fragments were obtained cloning genomic sequences in the pGL4.23 backbone (#E8411; Promega, Madison, Wis.) using the KpnI-XhoI sites upstream of the minimal promoter site. Fragments were cloned conserving the genomic orientation with regards to transcriptional orientation, adding KpnI and XhoI tails to the appropriate extremities via Phusion PCR. Wildtype fragments […] were cloned from wildtype C57Bl/6J genomic DNA, while mutated fragments (Δ sites) were amplified from ad-hoc synthetized DNA oligonucleotides, using genomic sequences from the C57Bl/6J genomic background (see Table 5 for a complete list of sequences). Flexor digitorum brevis (FDB) fibers were transfected by in vivo electroporation. Methods were described previously in (DiFranco et al., 2009) with modifications described in (Demonbreun and McNally, 2015). Briefly, the hindlimb footpad was injected with 10 μl hyaluronidase (8 units) (Cat #H4272, Sigma, St. Louis, Mo.). […] Ex vivo luciferase assay was performed on whole, electroporated FDB muscles. […] Luminescence was recorded at the Synergy HTX multi-mode 96-well plate reader (BioTek®, Winooski, Vt.). […] Results are expressed as fold change to average vehicle. All luciferase quantitation assays were conducted blinded to treatment groups. […]

[3] = weekly prednisone, mean ± s.e.m

For `C[C@]12C=CC(=O)C=C1CC[C@@H]1[C@@H]2C(=O)C[C@@]2(C)[C@H]1CC[C@]2(O)C(=O)CO` [prednisone, Prednisone], the “BCAA utilization in muscle” value ([1]; weekly prednisone) was “improved”, the “endpoint levels of ATP, NAD+, and glycogen in muscle and heart” value ([1]; weekly prednisone) was “increased” and the fasting glycemia ([1]; weekly prednisone 1 mg/kg i.p., mean ± s.e.m) was 109 ± 3.17 mg/dL. For the same molecule, the resting lactate [1, 3] was 3.36 ± 0.21 mM, the “serum BCAA” value [1, 3] was 419 ± 9.95 µM and the serum corticosterone [1, 3] was 143 ± 5.2 ng/mL. For the same molecule, the serum creatine kinase [1, 3] was 1.31 ± 0.04 U/ml, the “serum free fatty acids” value [1, 3] was 475 ± 9.18 µM and the “serum β-hydroxybutyrate” value [1, 3] was 323 ± 9.61 µM. For the same molecule, the “tissue BCAA, diaphragm” value [1, 3] was 45.4 ± 1.06 nmol/mg, the “tissue BCAA, heart” value [1, 3] was 0.91 ± 0.03 nmol/mg and the “tissue BCAA, omental fat” value [1, 3] was 24.5 ± 0.8 nmol/mg. For the same molecule, the “tissue BCAA, quadriceps” value [1, 3] was 90.9 ± 2.58 nmol/mg, the “tissue free fatty acids, diaphragm” value [1, 3] was 0.753 ± 0.07 nmol/mg and the “tissue free fatty acids, heart” value [1, 3] was 0.438 ± 0.05 nmol/mg. For the same molecule, the “tissue free fatty acids, omental fat” value [1, 3] was 3.49 ± 0.38 nmol/mg, the “tissue free fatty acids, quadriceps” value [1, 3] was 1.05 ± 0.06 nmol/mg and the “tissue β-hydroxybutyrate, diaphragm” value [1, 3] was 26.5 ± 2.11 nmol/mg. The “tissue β-hydroxybutyrate, heart” value [1, 3] was 11.9 ± 0.51 nmol/mg, the “tissue β-hydroxybutyrate, omental fat” value [1, 3] was 30.2 ± 0.85 nmol/mg and the “tissue β-hydroxybutyrate, quadriceps” value [1, 3] was 43.8 ± 2.23 nmol/mg. For the same molecule, the “Fluc reporter activity of GRE-KRE constructs” value [2] was “additive effect”.

— patent US20220062299A1, “USE OF GLUCOCORTICOID STEROIDS IN PREVENTING AND TREATING CONDITIONS OF MUSCLE WASTING, AGING AND METABOLIC DISORDER” (NORTHWESTERN UNIVERSITY, priority 2018, published 2022)
